The test system of one data set is T98G glioma cells. Put plainly: MTT test, overall cell growth, T98G. The conditions noted are these: 72 hours of incubation. Format: cell-based, human. A digest of the protocol:
(§1)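 Glioma (Hs683, T98G, U373) and oesophageal (OE21, OE33) lines seeded at 5,000–8,000 cells/well, treated 24 h later with compound at 1×10^−8 to 1×10^−4 M for 72 h at 37 °C, in sestuplicate.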
In general terms: Tetrazolium assays rely on reduction of a dye to a coloured formazan, in cell work by metabolically active cells.

Data set [1] relates to OE21 oesophageal cancer cells. Put plainly: MTT test, overall cell growth, OE21. The conditions noted are these: 72 hours of incubation. Format: cell-based, human. A digest of the protocol: as §1
The test system of the next data set is U373 cells. The experiment in a line: Cellular imaging (videomicroscopy) of cultured U373 cells: antiproliferative class and global growth ratio. It is filed as cell-based, human. Also noted: key to Anti proliferative class / anti-proliferative class-GGR: class I: actually cytostatic for 3 days (<10% of cell death at the 3rd day); class II: cyctostatic but becomes cytotoxic with <10% cell death on the 2nd day, and >20% of cell death on the 3rd day; class III: cytostatic but rapidly becomes cytotoxic with <10% cell death on the 1st day, >20% of cell death on the 2nd day and >50% of cell death on the 3rd day; class IV: cytotoxic (>50% of cell death on the first day). Conditions: for global growth ratio (GGR): GG treated cells/GG control cells, 72 h after drug addition, drug at its IC50 (MTT-test determined); for Anti proliferative class: cellular imaging of cultured U373 cells over three consecutive days. A digest of the protocol: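 U373-MG glioma cells seeded at low density, exposed or not to compound […], filmed by videomicroscopy for 72 h, in quadruplicate. Cells counted on first (0 h) and last (72 h) images; GGR = final/initial count, reported as GGR treated/GGR control.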

Data set [2] relates to human cancer cell lines (U373, T98G, Hs683, OE21, OE33). Put plainly: MTT test, mean over the cancer cell lines. Format: cell-based. The conditions noted are these: mean over the cancer cell lines, MTT test; read-out: IC50 Mean ± SEM. A digest of the protocol: as §1
The subject of a further data set is U373 glioma cells. The experiment in a line: MTT test, overall cell growth, U373. It is filed as cell-based, human. Conditions: 72 hours of incubation. A digest of the protocol:
as §1

A further data set relates to Hs683 glioma cells. Put plainly: MTT test, overall cell growth, Hs683. Format: cell-based, human. Conditions: 72 hours of incubation. A digest of the protocol: as §1
Data set [3] has as its system OE33 oesophageal cancer cells. Put plainly: MTT test, overall cell growth, OE33. It is filed as cell-based, human. Conditions: 72 hours of incubation. In outline: as §1

Consider `C=CCOc1ccc2c(c1)[nH]c1c(C)nccc12` [JR211], for which the 50% inhibitory concentration (IC50) (in general, the point on the concentration scale where inhibition reaches its midpoint) in the data set with T98G glioma cells came out at 32 ± 0.7 µM; in data set [1], 27 ± 2 µM; in data set [2], 30 ± 1 µM; with U373 glioma cells, 32 ± 2 µM; in the data set with Hs683 glioma cells, 28 ± 1 µM; in data set [3] it was 29.8 ± 0.7 µM. Also, the “global growth ratio (GGR)” value in the data set with U373 cells was determined as 0.2. In addition, the Anti proliferative class entry in the data set on U373 cells is on record as “II”.
Take `Cc1nccc2c1[nH]c1cc(OCC(C)C)ccc12` [JR221]: the IC50 in the data set with T98G glioma cells was 22 ± 3 µM; in data set [1], 12 ± 3 µM; in data set [2], 22 ± 3 µM; with U373 glioma cells, 24 ± 1 µM; in the data set on Hs683 glioma cells, 23 ± 1 µM; in data set [3], 25 ± 1 µM. For the same compound, the “global growth ratio (GGR)” value in the data set on U373 cells is given as 0.1. For the same compound, the Anti proliferative class entry in the data set with U373 cells is recorded as “IV (class IV: cytotoxic (>50% of cell death on the first day))”.
In the case of `Cc1nccc2c1[nH]c1cc(OCc3ccncc3)ccc12` [JR222], the IC50 was determined as 3.6 ± 0.2 µM in the data set on T98G glioma cells; 5 ± 0.4 µM in data set [1]; 5 ± 1 µM in data set [2]; 2.5 ± 0.2 µM with U373 glioma cells; 8.1 ± 0.2 µM in the data set on Hs683 glioma cells; 6.3 ± 0.1 µM in data set [3]. Further, the “global growth ratio (GGR)” value with U373 cells is reported as 0.4. In the data set with U373 cells, the Anti proliferative class result is on record as “II”.
Regarding `Cc1nccc2c1[nH]c1cc(OCCO)ccc12` [JR226], the IC50 amounted to 53 ± 3 µM in the data set with T98G glioma cells; 30 ± 4 µM in data set [1]; 46 ± 6 µM in data set [2]; 42 ± 2 µM in the data set on U373 glioma cells; 41 ± 3 µM in the data set with Hs683 glioma cells; 63 ± 4 µM in data set [3]. For the same compound, the “global growth ratio (GGR)” value with U373 cells was 0.3. Also, in the data set with U373 cells, the Anti proliferative class entry is on record as “I (class I: actually cytostatic for 3 days (<10% of cell death at the 3rd day))”.
As to `Cc1nccc2c3ccc(OCCC(C)C)cc3n(CCC(C)C)c12` [PL3, 1-methyl-7-(3-methylbutyloxy)-9-(3-methylbutyl)-β-carboline], the melting point – broadly, the temperature, or range, at which the solid turns liquid – stood at 106.4 °C.

(Values after patent publication US9168247B2, “Beta carboline derivatives useful in the treatment of proliferative disorders” (FACULTES UNIVERSITAIRES NOTRE DAME DE LA PAIX, priority 2010, dated 2015).)
